Experimental data reported in patent publication US8138158B2, “Compositions and methods for therapy for diseases characterized by defective chloride transport” (Children's Hospital & Research Center at Oakland, priority 1997, dated 2012).

What was measured:
Calu-3 monolayers [1] = test: Transepithelial short-circuit current (Isc) across unstimulated Calu-3 monolayers; type: cell-based, human; conditions: for transepithelial chloride currents in unstimulated tissue: compound added to mucosal (or serosal) perfusion, L-ascorbic acid 100 μM
Experimental: Currents were recorded with a serosal-to-mucosal chloride gradient at 0 mV and pulses were obtained at 2 mV.
Ascorbic acid (100 μM) was added as indicated. For comparison, ascorbic acid-stimulated chloride current was subsequently stimulated by the cAMP elevating agonist forskolin (20 μM, serosal). The CFTR activator genistein (20 mM) was then added to the mucosal perfusion as indicated. […] Currents were recorded with a serosal-to-mucosal chloride gradient at 0 mV and pulses were obtained at 2 mV.
100 μM ascorbic acid and forskolin (fsk, 20 μM, serosal) were added as indicated. The CFTR activator kaempferol (20 μM) was subsequently added, as indicated. […] Currents were recorded with a serosal-to-mucosal chloride gradient at 0 mV and pulses were obtained at 2 mV.
This experiment was performed using unstimulated tissue.
Kinetic analysis is depicted on the right panel and estimated half maximal stimulatory dose was 11.7 μM. […]
For comparison, ascorbic acid-stimulated chloride currents were stimulated by the cAMP elevating agonist forskolin (20 μM, serosal).
Stimulated C1 currents returned to baseline after 5-15 min.

Calu-3 monolayers [2] = test: Transepithelial chloride currents in forskolin-prestimulated Calu-3 monolayers; type: cell-based, human; conditions: prestimulated with 10 μM forskolin
Experimental: FIGS. 13A-13C illustrate the effect of additional representative flavonoids and isoflavonoids on chloride current in epithelial cells. FIG. 13A is a graph showing the stimulation of transepithelial chloride currents by reservatrol (100 μM), flavanone (100 μM), flavone (200 μM), apigenin (20 μM), apigenin 7-O-neohesperidoside (30 μM), kaempferol (20 μM), fisetin (100 μM), quercetin (30 μM), rutin (30 μM), genistein (30 μM), daidzein (50 μM), biochanin A (100 μM) and prunetin (100 μM) in Calu-3 monolayers. Experiments were performed in the presence of 10 μM forskolin. Stimulated currents are plotted relative to forskolin stimulated increase (forskolin stimulated currents are 100%). FIG. 13B is a recording showing the effect of 7,4′-dihydroxyflavone on chloride current in unstimulated tissue. […] Increasing concentrations of 7,4′-dihydroxyflavone (as indicated in μM) were added to mucosal side and dose-dependently stimulated chloride currents. Currents were recorded with a serosal-to-mucosal chloride gradient at 0 mV and pulses were obtained at 2 mV. FIG. 13C is a recording illustrating the effect of trimethoxy-apigenin. […] Increasing concentrations of trimethoxy-apigenin (as indicated in μM) were added to mucosal side and dose-dependently stimulated chloride currents. Experiment was performed on unstimulated tissue. Currents were recorded with a serosal-to-mucosal chloride gradient at 0 mV and pulses were obtained at 2 mV.
Airway epithelial cells were prestimulated with 10 μM forskolin. The percent increase in chloride current was then determined following treatment with a series of polyphenolic compounds. FIG. 13A summarizes the stimulatory effect of these compounds.

[3] = dehydroascorbic acid 10, 100 or 300 μM

Compound	transepithelial chloride currents in unstimulated tissue (Calu-3 monolayers [1]; [3])	chloride currents further stimulated to (forskolin stimulated currents are 100%) (Calu-3 monolayers [2]; compound at 100 μM)	also measured
O=c1cc(-c2ccc(O)cc2)oc2cc(O)ccc12 [7,4′-Dihydroxyflavone]	dose-dependently stimulated transepithelial C1 currents		
C[C@@H]1O[C@@H](O[C@H]2[C@H](Oc3cc(O)c4c(=O)cc(-c5ccc(O)cc5)oc4c3)O[C@H](CO)[C@@H](O)[C@@H]2O)[C@H](O)[C@H](O)[C@H]1O [apigenin 7-O-neohesperidoside]			chloride currents further stimulated to (forskolin stimulated currents are 100%) (Calu-3 monolayers [2]; compound at 30 μM): 155%
O=c1c(-c2ccc(O)cc2)coc2cc(O)ccc12 [daidzein]			chloride currents further stimulated to (forskolin stimulated currents are 100%) (Calu-3 monolayers [2]; compound at 50 μM): 162%
O=C1O[C@H](C(O)CO)C(=O)C1=O (stereo partly drawn) [dehydroascorbic acid, L-threo-2,3-Hexodiulosonic acid γ-lactone]	effectively stimulated transepithelial chloride currents		stimulated Cl currents returned to baseline after (Calu-3 monolayers [1]; [3]): 5 to 15 min
O=C1CC(c2ccccc2)Oc2ccccc21 (centres unmarked) [flavanone]		140%	
O=c1cc(-c2ccccc2)oc2ccccc12 [flavone]			chloride currents further stimulated to (forskolin stimulated currents are 100%) (Calu-3 monolayers [2]; compound at 200 μM): 128%
COc1cc(O)c2c(=O)c(-c3ccc(O)cc3)coc2c1 [prunetin]		161%	
Oc1ccc(/C=C/c2cc(O)cc(O)c2)cc1 [reservatrol, trans-3,5,4′-trihydroxystilbene]	dose-dependently stimulated transepithelial chloride currents	135%	
C[C@@H]1O[C@@H](OC[C@H]2O[C@@H](Oc3c(-c4ccc(O)c(O)c4)oc4cc(O)cc(O)c4c3=O)[C@H](O)[C@@H](O)[C@@H]2O)[C@H](O)[C@H](O)[C@H]1O [rutin]			chloride currents further stimulated to (forskolin stimulated currents are 100%) (Calu-3 monolayers [2]; compound at 30 μM): 149%
COc1ccc(-c2cc(=O)c3c(OC)cc(OC)cc3o2)cc1 [trimethoxy-apigenin]	dose-dependently stimulated transepithelial C1 currents		EC50 (Calu-3 monolayers [1]; unstimulated tissue, mucosal addition, kinetic analysis, read-out: estimated half maximal stimulatory dose): 11.7 µM
fisetin		108%	
